What was measured:
Spodoptera litura = experiment: Efficacy test against Spodoptera litura (cabbage leaf dip); assay type: in vivo; settings: foliar, 144 h, cabbage leaves soaked 30 seconds, second-instar larvae, 6 days after release, 25° C., read-out: mortality rate against Spodoptera litura
Protocol: (§1) Five parts of the compound of the present invention, 93.6 parts of dimethylformamide and 1.4 parts of a polyoxyethylene alkyl aryl ether were mixed together and dissolved to obtain an emulsion (I) containing 5% of the active ingredient.
(§2) The mortality rate was calculated using the following equation.
(§3) Mortality rate (%)=(number of dead insects/number of test insects)×100
(§4) The emulsion (I) was diluted with water to achieve a concentration of the compound of the present invention of 125 ppm. Cabbage leaves were soaked in the diluted liquid for 30 seconds. These cabbage leaves were then placed in a Petri dish, and five second-instar larvae of Spodoptera litura were released into the dish. The Petri dish closed with a lid was placed in a thermostatic chamber at a temperature of 25° C. and a humidity of 60%. Mortality was investigated 6 days after larvae release, and the mortality rate was calculated. The test was repeated.

Caenorhabditis elegans = experiment: Efficacy test against Caenorhabditis elegans (in vitro test); assay type: in vivo; settings: 48 h, mixed instars, 2 days at 25° C., 96-well microplate, read-out: nematode mortality rate against Caenorhabditis elegans
Protocol: (§5) A suspension containing about 50 mixed instars of Caenorhabditis elegans per 0.2 mL was prepared. The compound of the present invention was dissolved in DMSO, so that a DMSO solution containing the compound at a concentration of 10,000 pm was prepared. 200 μL of the suspension mentioned above per well and 1.0 μL of the DMSO solution of the compound mentioned above per well were dispensed into each well of a 96-well microplate. The final concentration of the compound of the present invention per well was 50 ppm. The 96-well microplate was placed for 2 days at 25° C. Subsequently, mortality was investigated, and the nematode mortality rate was calculated. […] The test was repeated.

Meloidogyne incognita = experiment: Efficacy test against Meloidogyne incognita (in vitro test); assay type: in vivo; settings: 48 h, second-instar larvae (L2), 2 days at 15° C., 96-well microplate, read-out: nematode mortality rate against Meloidogyne incognita
Protocol: as §5, with “50 second-instar larvae (L2)” for “50 mixed instars”, “of Meloidogyne incognita” for “of Caenorhabditis elegans”, “10,000 ppm” for “10,000 pm”, “at 15°” for “at 25°”

Mythimna separata = experiment: Efficacy test against Mythimna separata (artificial feed); assay type: in vivo; settings: second-instar larvae; 1 μl of 5% emulsion (I) in 0.8 g artificial feed; 5 days at 25° C.
Protocol: as §1
An emulsion (II) containing 0% of an active ingredient was prepared in the same method as that described above, with the exception that 5 parts of the compound of the present invention was not mixed and dissolved.
as §2, §3
First, 0.8 g of an artificial feed (Insecta LFS, manufactured by Nosan Corporation) and 1 μl of the emulsion (I) were mixed thoroughly, and 0.2 g of the resulting mixture was placed in each of the treatment areas of a plastic test container (volume: 1.4 ml) to complete preparation of a test feed. Two second-instar larvae of Mythimna separata were inoculated into each treatment area, and the plastic test container was sealed with a plastic lid. The sealed container was placed for 5 days in a thermostatic chamber at 25° C. Subsequently, the mortality rate and the amount of feed consumed were checked. In addition, a test for a control area was carried out under the same conditions as those described above, with the exception of replacing the emulsion (I) with the emulsion (II). The test was repeated in both cases.

Heterodera glycines = experiment: Efficacy test against Heterodera glycines (in vitro test); assay type: in vivo; settings: 72 h, second-instar larvae (L2), 3 days at 25° C., 96-well microplate, read-out: nematode mortality rate against Heterodera glycines
Protocol: as §5, with “50 second-instar larvae (L2)” for “50 mixed instars”, “of Heterodera glycines” for “of Caenorhabditis elegans”, “and 0.2” for “and 1.0”, “was 10” for “was 50”, “for 3” for “for 2”

Plutella xylostella = experiment: Efficacy test against Plutella xylostella (cabbage leaf dip); assay type: in vivo; settings: foliar, 72 h, cabbage leaves soaked 30 seconds, second-instar larvae, 3 days after release, 25° C., read-out: mortality rate (efficacy test against Plutella xylostella; sentence prints Spodoptera litura)
Protocol: as §1, §2, §3
as §4, with “of Plutella xylostella” for “of Spodoptera litura”, “investigated 3” for “investigated 6”

Which results are given for `O=C(Nc1ccc(C(F)(F)F)cc1)c1cnc(Cl)cc1NS(=O)(=O)C(F)(F)F` [Compound A-1, 6-chloro-N-[4-(trifluoromethyl)phenyl]-4-(trifluoromethylsulfonylamino)pyridine-3-carboxamide]?
mortality at 125 ppm (Spodoptera litura): ≥ 80%; mortality at 50 ppm (Caenorhabditis elegans): ≥ 80%; mortality at 50 ppm (Meloidogyne incognita): ≥ 80%; mortality rate against Mythimna separata (Mythimna separata): 100%; mortality at 10 ppm (Heterodera glycines): ≥ 80%; mortality at 125 ppm (Plutella xylostella): ≥ 80%

Which results are given for `O=C(Nc1ccc(C(F)(F)F)cc1)c1ncc(C(F)(F)F)cc1NS(=O)(=O)C(F)(F)F` [Compound A-2]?
mortality at 125 ppm (Spodoptera litura): ≥ 80%; mortality at 50 ppm (Meloidogyne incognita): ≥ 80%; mortality rate against Mythimna separata (Mythimna separata): 100%; mortality at 125 ppm (Plutella xylostella): ≥ 80%

Which melting point does the source give for `COC(=O)c1cc(F)c(F)cc1NC(=O)c1ncc(C(F)(F)F)cc1NS(=O)(=O)C(F)(F)F` [Compound A-3] here?
Its melting point is 270 °C.

Which mortality at 125 ppm (Spodoptera litura) does the source give for `O=C(Nc1ccc(C(F)(F)F)cc1)c1ccc(Cl)nc1NS(=O)(=O)C(F)(F)F` [Compound A-4] here?
Its mortality at 125 ppm is no less than 80%.

What about the mortality at 50 ppm (Meloidogyne incognita) of the same compound?
The mortality at 50 ppm was no less than 80%.

And the “mortality rate against Mythimna separata” value (Mythimna separata)?
Its value is 100%.

And the mortality at 125 ppm (Plutella xylostella)?
Its mortality at 125 ppm is no less than 80%.

Which mortality at 50 ppm (Caenorhabditis elegans) does the source give for `O=C(Nc1ccc(C(F)(F)F)cc1)c1cc(Cl)ncc1NS(=O)(=O)C(F)(F)F` [Compound A-5] here?
Its mortality at 50 ppm is no less than 80%.

And the mortality at 50 ppm (Meloidogyne incognita)?
The mortality at 50 ppm was no less than 80%.

What about the “mortality rate against Mythimna separata” value (Mythimna separata) of the same compound?
The value was 100%.

What about the mortality at 10 ppm (Heterodera glycines) of the same compound?
Its mortality at 10 ppm is no less than 80%.

Which mortality at 50 ppm (Meloidogyne incognita) does the source give for `O=C(Nc1cc(F)c(F)cc1-n1cccn1)c1sc(Cl)cc1NS(=O)(=O)C(F)(F)F` [Compound A-6] here?
Its mortality at 50 ppm is no less than 80%.

And the “mortality rate against Mythimna separata” value (Mythimna separata)?
Its value is 100%.

With `O=C(Nc1ccc(F)c(F)c1)c1cnc(Cl)cc1NS(=O)(=O)C(F)(F)F` [Compound A-7] as the compound, how does the mortality at 50 ppm (Caenorhabditis elegans) read?
Its mortality at 50 ppm is no less than 80%.

And the mortality at 50 ppm (Meloidogyne incognita)?
Its mortality at 50 ppm is no less than 80%.

What about the “mortality rate against Mythimna separata” value (Mythimna separata) of the same compound?
The value was 100%.

What about the mortality at 10 ppm (Heterodera glycines) of the same compound?
Its mortality at 10 ppm is no less than 80%.

Source: patent US20210032205A1, “HETEROARYL SULFONAMIDE COMPOUND AND FORMULATION FOR CONTROLLING HARMFUL ORGANISMS” (Nippon Soda Co., Ltd., priority 2018, published 2021)
